{
  "source": "paper PMC10914731",
  "about": "“Homo-BacPROTAC-induced degradation of ClpC1 as a strategy against drug-resistant mycobacteria” (Nature Communications, 2024)",
  "key": {"[1]": {"target": "ClpC1 NTD protein (M. tuberculosis) (Mycobacterium tuberculosis, UniProt P9WPC9)", "sequence (P9WPC9 1-156, looked up, natural form)": "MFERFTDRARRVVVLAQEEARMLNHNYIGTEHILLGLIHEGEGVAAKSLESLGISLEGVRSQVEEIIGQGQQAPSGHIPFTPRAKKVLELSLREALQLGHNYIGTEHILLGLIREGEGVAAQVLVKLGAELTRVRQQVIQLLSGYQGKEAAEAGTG", "test": "biochemical", "assay_type": "binding"}, "in vitro": {"test": "in vitro", "conditions": "human", "summary_of_the_method": "(§1)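 Permeability across Caco-2 monolayers was measured in both directions, apical-to-basolateral and basolateral-to-apical, in 10^-6 cm s-1. Efflux ratio = P(B−A)/P(A−B). Intrinsic permeability is the mean of P(A−B) and P(B−A).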"}, "Caco-2 monolayers": {"system": "Caco-2 monolayers", "test": "in vitro", "conditions": "human, Caco-2", "summary_of_the_method": "as §1"}, "[2]": {"assay_type": "in vitro ADME, Mice", "summary_of_the_method": "(§2)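 Clearance values are expressed as % of liver blood flow, derived from first-order half-lives using the well-stirred liver model. Depletion of 1 µmol/l compound is followed by HPLC-MS/MS in NADPH-supplemented microsomes (0.5 mg/ml) at 37 °C, pH 7.5.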"}, "[3]": {"assay_type": "in vitro ADME, Rat", "summary_of_the_method": "as §2"}, "[4]": {"test": "Microsomal stability, human", "assay_type": "in vitro ADME", "summary_of_the_method": "as §2"}, "[5]": {"test": "Hepatocyte stability, mice", "assay_type": "in vitro ADME", "conditions": "mouse, pH 7.4", "summary_of_the_method": "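Clearance, expressed as % of liver blood flow (% Qh), derived from parent-compound half-life by the well-stirred model, with HPLC-MS/MS quantitation after acetonitrile quench. Test compound at 1 µM final added to mouse hepatocyte suspension in 50% serum after 15–30 min acclimation at 37 °C; six samples over up to 6 h.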"}, "[6]": {"assay_type": "in vitro ADME, Rat", "conditions": "rat, pH 7.4"}, "[7]": {"assay_type": "in vitro ADME, Human", "conditions": "human, pH 7.4"}, "[8]": {"system": "M. tuberculosis H37Rv (ATCC 27294)", "test": "microbe, parasite or virus in culture", "assay_type": "cell-based"}, "Msm 607": {"system": "Msm 607", "test": "microbe, parasite or virus in culture", "assay_type": "cell-based"}, "[9]": {"target": "His6-tagged ClpC1-NTD substrate, M. smegmatis ClpC1P1P2 (UniProt A0R574+P9WPC9)", "sequence (P9WPC9 1-156, looked up, natural form)": "as above", "sequence (A0R574 whole entry)": "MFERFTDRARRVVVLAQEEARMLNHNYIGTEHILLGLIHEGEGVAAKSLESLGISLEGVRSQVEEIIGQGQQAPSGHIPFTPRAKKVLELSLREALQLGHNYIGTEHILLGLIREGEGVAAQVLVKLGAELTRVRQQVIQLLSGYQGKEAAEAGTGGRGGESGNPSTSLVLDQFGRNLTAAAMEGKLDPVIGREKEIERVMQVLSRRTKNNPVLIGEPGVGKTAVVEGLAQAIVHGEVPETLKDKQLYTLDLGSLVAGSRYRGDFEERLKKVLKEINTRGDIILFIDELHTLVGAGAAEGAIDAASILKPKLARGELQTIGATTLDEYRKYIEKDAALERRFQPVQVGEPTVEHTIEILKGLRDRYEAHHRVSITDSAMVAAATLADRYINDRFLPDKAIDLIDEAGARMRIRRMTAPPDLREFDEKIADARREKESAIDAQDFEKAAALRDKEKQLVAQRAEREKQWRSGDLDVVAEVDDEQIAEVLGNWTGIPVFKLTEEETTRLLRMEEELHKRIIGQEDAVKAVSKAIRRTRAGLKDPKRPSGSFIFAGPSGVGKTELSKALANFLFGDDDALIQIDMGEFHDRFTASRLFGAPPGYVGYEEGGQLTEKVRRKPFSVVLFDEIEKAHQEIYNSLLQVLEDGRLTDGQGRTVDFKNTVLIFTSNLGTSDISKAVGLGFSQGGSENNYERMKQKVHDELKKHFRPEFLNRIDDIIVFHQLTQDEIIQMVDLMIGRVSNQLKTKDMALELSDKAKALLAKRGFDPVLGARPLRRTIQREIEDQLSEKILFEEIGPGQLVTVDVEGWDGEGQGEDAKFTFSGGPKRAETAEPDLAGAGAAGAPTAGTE", "test": "biochemical", "assay_type": "biochemical", "conditions": "for DC50: Msm; for % Response / ClpC1-NTD peak area: Figure 4a source data, well replicates"}, "[10]": {"target": "ClpC1-NTD substrate, M. tuberculosis ClpC1P1P2 (Mycobacterium tuberculosis, UniProt P9WPC9)", "sequence (P9WPC5 whole entry)": "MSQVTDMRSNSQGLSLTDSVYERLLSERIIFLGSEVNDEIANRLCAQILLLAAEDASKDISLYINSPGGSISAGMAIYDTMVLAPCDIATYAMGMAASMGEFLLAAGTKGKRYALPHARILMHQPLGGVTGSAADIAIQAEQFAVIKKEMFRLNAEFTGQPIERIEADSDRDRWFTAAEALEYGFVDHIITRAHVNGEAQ", "sequence (P9WPC9 whole entry)": "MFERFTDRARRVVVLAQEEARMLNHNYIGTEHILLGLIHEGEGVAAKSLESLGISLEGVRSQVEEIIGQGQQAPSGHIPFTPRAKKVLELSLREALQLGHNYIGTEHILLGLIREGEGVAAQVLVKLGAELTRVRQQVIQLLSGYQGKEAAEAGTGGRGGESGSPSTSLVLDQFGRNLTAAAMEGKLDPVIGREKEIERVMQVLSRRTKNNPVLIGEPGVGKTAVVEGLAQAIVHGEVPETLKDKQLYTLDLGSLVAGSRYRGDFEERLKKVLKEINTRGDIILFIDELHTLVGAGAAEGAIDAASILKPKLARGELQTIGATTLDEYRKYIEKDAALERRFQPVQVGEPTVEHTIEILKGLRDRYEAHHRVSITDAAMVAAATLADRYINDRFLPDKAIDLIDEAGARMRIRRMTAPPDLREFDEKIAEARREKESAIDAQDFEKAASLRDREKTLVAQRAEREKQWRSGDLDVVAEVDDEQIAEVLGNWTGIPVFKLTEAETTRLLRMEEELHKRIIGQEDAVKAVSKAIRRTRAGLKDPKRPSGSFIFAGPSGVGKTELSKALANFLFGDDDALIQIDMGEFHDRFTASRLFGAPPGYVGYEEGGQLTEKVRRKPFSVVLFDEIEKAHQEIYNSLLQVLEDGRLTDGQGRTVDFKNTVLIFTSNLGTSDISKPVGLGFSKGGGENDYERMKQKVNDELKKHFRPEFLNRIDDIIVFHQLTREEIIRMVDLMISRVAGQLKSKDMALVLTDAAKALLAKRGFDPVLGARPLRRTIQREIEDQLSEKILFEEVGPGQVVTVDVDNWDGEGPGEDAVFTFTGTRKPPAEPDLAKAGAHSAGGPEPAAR", "sequence (P9WPC3 whole entry, further chain)": "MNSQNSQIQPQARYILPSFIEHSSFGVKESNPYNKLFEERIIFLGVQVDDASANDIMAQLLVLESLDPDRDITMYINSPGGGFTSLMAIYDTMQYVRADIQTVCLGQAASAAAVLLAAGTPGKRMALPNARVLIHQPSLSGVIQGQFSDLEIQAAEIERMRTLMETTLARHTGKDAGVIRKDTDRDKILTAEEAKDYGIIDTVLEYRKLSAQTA", "test": "biochemical", "assay_type": "biochemical", "conditions": "Mtb"}, "[11]": {"target": "endogenous ClpC1 in Msm #607 cells (Mycolicibacterium smegmatis, UniProt A0R574)", "sequence (A0R574 whole entry)": "as the sequence (A0R574 whole entry) above", "assay_type": "cell-based, M. smegmatis"}, "[12]": {"conditions": "mean of the measurements, read-out: DC50, Mean"}},
  "note": "“And” between values parts separate entries of the source, which are not always exact repeats. Identical values can stand only once. Like-named read-outs stand apart in the source and are kept apart here. Where a SMILES comes first, the peptide text is derived from it. [ ]: non-standard residue; d: D form. Trp(1-(1,1-Me2-allyl)) = C=CC(C)(C)n1cc(C[C@H](N)C(=O)O)c2ccccc21; Ala(3R-Me,3-isobutenyl) = CC(C)=C[C@@H](C)[C@H](N)C(=O)O; NMeLeu(5-OH,4R) = CN[C@@H](C[C@@H](C)CO)C(=O)O; Phe(βR-OMe) = CO[C@H](c1ccccc1)[C@H](N)C(=O)O; NMeL = CN[C@@H](CC(C)C)C(=O)O",
  "data": [
    {"smiles": "C=CC(C)(C)n1cc(C[C@@H]2NC(=O)[C@H]([C@H](C)C=C(C)C)NC(=O)[C@H](CC(C)C)N(C)C(=O)[C@H](C(C)C)NC(=O)[C@H]([C@H](OC)c3ccccc3)NC(=O)[C@H](C)NC(=O)[C@H](C[C@@H](C)CO)N(C)C2=O)c2ccccc21", "note": "[dCymC] (cyclo([Trp(1-(1,1-Me2-allyl))][NMeLeu(5-OH,4R)]A[Phe(βR-OMe)]V[NMeL][Ala(3R-Me,3-isobutenyl)]))", "values": [
      {"measurement": "Kd", "setting": "[1]; SPR (Supplementary Table 1), read-out: KD ClpC1-NTD Mean ± SD", "result": "0.0011 ± 0.0004", "unit": "µM"},
      {"measurement": "Kd", "setting": "[1]; SPR, individual measurements (source data), read-out: KD ClpC1-NTD", "result": "2.02 nM and 1.58 nM and 1.15 nM (5×) and 0.995 nM and 1.06 nM (3×) and 1.21 nM (2×) and 1.23 nM (3×) and 0.859 nM and 1.01 nM (4×) and 1.13 nM (2×) and 1.16 nM (5×) and 0.401 nM and 0.981 nM and 0.95 nM and 1.03 nM and 0.866 nM and 1.14 nM (2×) and 1.54 nM and 0.99 nM and 1.26 nM and 1.53 nM (2×) and 1.07 nM (3×) and 1.05 nM (3×) and 1.09 nM (4×) and 1.84 nM and 1.39 nM (2×) and 1.44 nM and 1.47 nM (2×) and 0.934 nM and 1.1 nM (3×) and 0.723 nM and 2.22 nM and 0.892 nM and 0.91 nM and 1.75 nM (3×) and 0.741 nM and 0.702 nM and 1.25 nM (2×) and 0.729 nM and 0.721 nM and 1.67 nM and 1.63 nM and 1.37 nM and 1.92 nM and 1.99 nM and 1.17 nM and 1.08 nM (3×) and 0.583 nM and 1.11 nM (4×) and 0.666 nM and 0.718 nM and 0.833 nM and 0.74 nM and 0.783 nM and 0.822 nM and 0.734 nM and 0.671 nM and 1.6 nM and 1.52 nM (2×) and 1.45 nM (3×) and 1.33 nM (3×) and 1.28 nM (2×) and 1.31 nM and 0.952 nM (2×) and 0.854 nM and 1.2 nM (3×) and 0.728 nM and 0.717 nM and 1.59 nM and 1.51 nM and 0.903 nM and 0.9 nM (2×) and 0.985 nM and 1.18 nM and 0.911 nM and 0.904 nM and 1.12 nM and 0.85 nM and 0.908 nM and 1.02 nM and 3.37 nM and 0.912 nM and 0.781 nM and 0.973 nM and 0.999 nM and 0.958 nM and 0.76 nM and 0.886 nM and 0.843 nM and 1.04 nM (4×) and 1.24 nM and 0.917 nM and 0.907 nM and 0.838 nM"},
      {"measurement": "Kd", "setting": "[1]; SPR, single independent measurements, read-out: KD ClpC1-NTD", "result": "1.15 nM (5×) and 1.06 nM (3×) and 1.21 nM (2×) and 1.23 nM (3×) and 1.01 nM (4×) and 1.13 nM (2×) and 1.16 nM (5×) and 1.14 nM (2×) and 1.53 nM (2×) and 1.07 nM (3×) and 1.05 nM (3×) and 1.09 nM (4×) and 1.39 nM (2×) and 1.47 nM (2×) and 1.1 nM (3×) and 1.75 nM (3×) and 1.25 nM (2×) and 1.08 nM (3×) and 1.11 nM (4×) and 1.52 nM (2×) and 1.45 nM (3×) and 1.33 nM (3×) and 1.28 nM (2×) and 0.952 nM (2×) and 1.2 nM (3×) and 0.9 nM (2×) and 1.04 nM (4×)"},
      {"measurement": "Kd", "setting": "[1]; SPR, read-out: ClpC1-NTD KD Mean ± SD", "result": "0.0011 ± 0.0004", "unit": "µM"},
      {"measurement": "efflux ratio", "setting": "in vitro; Caco-2", "result": 3},
      {"measurement": "Papp B→A", "setting": "in vitro; Caco-2, CACO permeability PEBA", "result": 2.6, "unit": "×10⁻⁶ cm/s"},
      {"measurement": "Papp A→B", "setting": "in vitro; Caco-2, Caco-2 permeability P (A-B)", "result": 1.3, "unit": "×10⁻⁶ cm/s"},
      {"measurement": "Papp B→A", "setting": "in vitro; Caco-2, Caco-2 permeability P (B-A)", "result": 3.1, "unit": "×10⁻⁶ cm/s"},
      {"measurement": "Caco-2 Int. Perm", "setting": "Caco-2 monolayers", "result": 2.2},
      {"measurement": "Influence of N-methylation on permeability", "setting": "Caco-2 monolayers", "result": 1.6},
      {"measurement": "Microsomal Stability Mouse QH", "setting": "[2]; Mouse", "result": 56.100, "unit": "%"},
      {"measurement": "Microsomal Stability Mice", "setting": "[2]; clearance in microsomes", "result": 56, "unit": "%Qh"},
      {"measurement": "Microsomal Stability Rat QH", "setting": "[3]; Rat", "result": 38.300, "unit": "%"},
      {"measurement": "Microsomal Stability Rat", "setting": "[3]; clearance in microsomes", "result": 38, "unit": "%Qh"},
      {"measurement": "Microsomal Stability Human QH", "setting": "[4]; Human", "result": 65.700, "unit": "%"},
      {"measurement": "Microsomal Stability Human", "setting": "[4]; clearance in microsomes", "result": 66, "unit": "%Qh"},
      {"measurement": "Hepatocyte Mice", "setting": "[5]", "result": 46, "unit": "%Qh"},
      {"measurement": "Hepatocyte Rat", "setting": "[6]", "result": 55, "unit": "%Qh"},
      {"measurement": "Hepatocyte Stability Rat QH", "setting": "[6]", "result": 55.000, "unit": "%"},
      {"measurement": "Hepatocyte Human", "setting": "[7]", "result": 36, "unit": "%Qh"},
      {"measurement": "Hepatocyte Stability Human QH", "setting": "[7]", "result": 38.000, "unit": "%"},
      {"measurement": "MIC", "setting": "[8]; Mycobacterium tuberculosis, M. tuberculosis H37Rv strain, read-out: MIC Mtb H37Rv Mean ± SD", "result": "0.4 ± 0.1", "unit": "µM"},
      {"measurement": "MIC", "setting": "[8]; Mycobacterium tuberculosis, Mtb H37Rv (Supplementary Table 2), read-out: MIC Mtb", "result": "0.4 ± 0.1", "unit": "µM"},
      {"measurement": "MIC", "setting": "[8]; Mycobacterium tuberculosis, individual measurements (source data), read-out: Mtb MIC", "result": 0.39, "unit": "µM"},
      {"measurement": "MIC", "setting": "[8]; Mycobacterium tuberculosis, single determinations, read-out: Mtb MIC", "result": 0.39, "unit": "µM"},
      {"measurement": "MIC", "setting": "[8]; individual measurements (source data), read-out: Mtb MIC", "result": "0.390 µM and 0.600 µM and 0.300 µM"},
      {"measurement": "MIC", "setting": "[8]; single determinations, read-out: Mtb MIC", "result": "0.600 µM and 0.300 µM"},
      {"measurement": "MIC", "setting": "Msm 607; Mycolicibacterium smegmatis, 607, read-out: MIC Msm 607", "result": "2.8 ± 0.4", "unit": "µM"},
      {"measurement": "MIC", "setting": "Msm 607; Mycolicibacterium smegmatis, 607, read-out: Msm 607 MIC, single determinations", "result": 3.12, "unit": "µM"},
      {"measurement": "Msm 607 MIC", "setting": "Msm 607; single determinations", "result": 2.500, "unit": "µM"},
      {"measurement": "DC50", "setting": "[9]; Measurement 1-6, read-out: DC50, single measurements", "result": "> 100", "unit": "µM"},
      {"measurement": "DC50", "setting": "[9]; [12]", "result": "> 100", "unit": "µM"},
      {"measurement": "degradation of the His6-tagged ClpC1-NTD substrate", "setting": "[9]; cell-free, result in words", "result": "did not cause any degradation"},
      {"measurement": "% Response", "setting": "[9]; conc. 0.4 µM", "result": "106.994% and 100.864% and 100.549% and 126.212% and 118.079% and 125.703% and 101.139% and 105.018% and 104.304%"},
      {"measurement": "ClpC1-NTD peak area", "setting": "[9]; conc. 0.4 µM", "result": "974818 and 1343173 and 762481 and 700950 and 757234 and 818245 and 783567 and 770572 and 1135273"},
      {"measurement": "% Response", "setting": "[9]; conc. 33.3 µM", "result": "107.525% and 103.829% and 103.089% and 121.205% and 120.164% and 127.4% and 120.436% and 100.085% and 97.8128%"},
      {"measurement": "ClpC1-NTD peak area", "setting": "[9]; conc. 33.3 µM", "result": "1099272 and 1301491 and 948418 and 890861 and 865884 and 830598 and 816002 and 754560 and 1171647"},
      {"measurement": "% Response", "setting": "[9]; conc. 100.0 µM", "result": "99.5642% and 103.437% and 105.517% and 119.388% and 117.765% and 125.04% and 101.258% and 115.542% and 91.4636%"},
      {"measurement": "ClpC1-NTD peak area", "setting": "[9]; conc. 100.0 µM", "result": "1282982 and 1406378 and 1339163 and 984807 and 916165 and 1033433 and 896176 and 856679 and 1974349"},
      {"measurement": "DC50", "setting": "[10]; Measurement 1-4, read-out: DC50, single measurements", "result": "> 100", "unit": "µM"},
      {"measurement": "DC50", "setting": "[10]; [12]", "result": "> 100", "unit": "µM"},
      {"measurement": "ClpC1 peak area", "setting": "[11]; 100 µM, Figure 5c, well replicates of 3 experiments", "result": "516046 and 317875 and 398263 and 302242 and 500156 and 40170.6 and 421518 and 401814 and 368135"},
      {"measurement": "intracellular degradation of ClpC1", "setting": "[11]; Msm #607, 24 h, result in words", "result": "did not induce degradation of ClpC1"}
    ]}
  ]
}
